Experimental data reported in patent US20250312352A1, “GLP-1R MODULATING COMPOUNDS” (Gilead Sciences, Inc., priority 2021, published 2025).

Molecular target: T1, GLP-1R (Homo sapiens, UniProt P43220)
T1 construct: host or cells: CHO cells
Assay: GLP-1R activation cAMP assay (Assay 1 or Assay 2)
Assay type: cell-based
Settings: cAMP increase in CHO cells stably expressing GLP-1R; compounds run on one of the two cAMP assays
Procedure, shortened: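 CHO cells stably expressing human GLP-1R were incubated 1 h in HBSS/20 mM HEPES/0.1% BSA, then exposed to 10-point agonist dilutions for 30 min at 37 °C. cAMP increase was measured with an HTRF Gs dynamic kit; EC50 from sigmoidal fit of response versus log concentration.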

T1 sequence (P43220 24-463): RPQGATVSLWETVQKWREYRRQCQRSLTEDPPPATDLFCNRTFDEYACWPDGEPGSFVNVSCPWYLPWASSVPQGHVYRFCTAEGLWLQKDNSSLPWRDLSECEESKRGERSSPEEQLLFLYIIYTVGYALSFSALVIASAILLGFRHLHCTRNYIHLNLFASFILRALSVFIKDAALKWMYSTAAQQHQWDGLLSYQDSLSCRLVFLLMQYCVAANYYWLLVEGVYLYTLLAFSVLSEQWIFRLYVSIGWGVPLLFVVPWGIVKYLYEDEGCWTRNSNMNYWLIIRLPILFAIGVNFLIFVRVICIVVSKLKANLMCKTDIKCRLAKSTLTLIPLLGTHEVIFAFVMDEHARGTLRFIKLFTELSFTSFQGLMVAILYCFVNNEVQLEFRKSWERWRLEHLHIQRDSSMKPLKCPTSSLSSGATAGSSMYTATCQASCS

Question: O=C(O)c1ccc2nc(Cc3cc(F)c(-c4cccc(OCc5cc(C(F)(F)F)ns5)n4)cc3F)n(C[C@@H]3CCO3)c2c1 [Example 81, (S)-2-(2,5-difluoro-4-(6-((3-(trifluoromethyl)isothiazol-5-yl)methoxy)pyridin-2-yl)benzyl)-1-(oxetan-2-ylmethyl)-1H-benzo[d]imidazole-6-carboxylic acid] was tested. Which EC50 did it give?
Answer: 810 pM

Question: How did the EC50 turn out when Cn1cc(-n2ccc(COc3cccc(-c4cc(F)c(Cc5nc6ccc(C(=O)O)cc6n5C[C@@H]5CCO5)cc4F)n3)n2)cn1 [Example 82, (S)-2-(2,5-difluoro-4-(6-((1′-methyl-1′H-[1,4′-bipyrazol]-3-yl)methoxy)pyridin-2-yl)benzyl)-1-(oxetan-2-ylmethyl)-1H-benzo[d]imidazole-6-carboxylic acid] was run?
Answer: 5530 pM

Question: How did the EC50 turn out when O=C(O)c1ccc2nc(Cc3cc(F)c(-c4cccc(OCc5ccn(-c6cnn(C(F)F)c6)n5)n4)cc3F)n(C[C@@H]3CCO3)c2c1 [Example 83, (S)-2-(4-(6-((1′-(difluoromethyl)-1′H-[1,4′-bipyrazol]-3-yl)methoxy)pyridin-2-yl)-2,5-difluorobenzyl)-1-(oxetan-2-ylmethyl)-1H-benzo[d]imidazole-6-carboxylic acid] was run?
Answer: 3510 pM

Question: O=C(O)c1ccc2nc(Cc3cc(F)c(-c4cccc(OCc5ncc(-c6cnn(C(F)F)c6)s5)n4)cc3F)n(C[C@@H]3CCO3)c2c1 [Example 84, (S)-2-(4-(6-((5-(1-(difluoromethyl)-1H-pyrazol-4-yl)thiazol-2-yl)methoxy)pyridin-2-yl)-2,5-difluorobenzyl)-1-(oxetan-2-ylmethyl)-1H-benzo[d]imidazole-6-carboxylic acid] was tested. Which EC50 did it give?
Answer: 70 pM

Question: For O=C(O)c1cc(F)c2nc(Cc3cc(F)c(-c4cccc(OCc5ncc(-c6cnn(C(F)F)c6)s5)n4)cc3F)n(C[C@@H]3CCO3)c2c1 [Example 85, (S)-2-(4-(6-((5-(1-(difluoromethyl)-1H-pyrazol-4-yl)thiazol-2-yl)methoxy)pyridin-2-yl)-2,5-difluorobenzyl)-4-fluoro-1-(oxetan-2-ylmethyl)-1H-benzo[d]imidazole-6-carboxylic acid], which EC50 is on record?
Answer: 50 pM

Question: Which EC50 does the source give for Cn1cc(-c2cc(F)c(COc3cccc(-c4cc(F)c(Cc5nc6ccc(C(=O)O)cc6n5C[C@@H]5CCO5)cc4F)n3)s2)cn1 [Example 86, (S)-2-(2,5-difluoro-4-(6-((3-fluoro-5-(1-methyl-1H-pyrazol-4-yl)thiophen-2-yl)methoxy)pyridin-2-yl)benzyl)-1-(oxetan-2-ylmethyl)-1H-benzo[d]imidazole-6-carboxylic acid] here?
Answer: 140 pM

Question: Cn1cc(-c2cnc(COc3cccc(-c4cc(F)c(Cc5nc6c(F)cc(C(=O)O)cc6n5C[C@@H]5CCO5)cc4F)n3)s2)cn1 [Example 87, (S)-2-(2,5-difluoro-4-(6-((5-(1-methyl-1H-pyrazol-4-yl)thiazol-2-yl)methoxy)pyridin-2-yl)benzyl)-4-fluoro-1-(oxetan-2-ylmethyl)-1H-benzo[d]imidazole-6-carboxylic acid] was tested. Which EC50 did it give?
Answer: 80 pM

Question: With O=C(O)c1ccc2nc(Cc3cc(F)c(-c4cccc(OCc5ncc(-c6cnn(CC7CC7)c6)s5)n4)cc3F)n(C[C@@H]3CCO3)c2c1 [Example 88, (S)-2-(4-(6-((5-(1-(cyclopropylmethyl)-1H-pyrazol-4-yl)thiazol-2-yl)methoxy)pyridin-2-yl)-2,5-difluorobenzyl)-1-(oxetan-2-ylmethyl)-1H-benzo[d]imidazole-6-carboxylic acid] as the molecule, how does the EC50 read?
Answer: 440 pM

Question: With Cn1cc(-c2cnc(COc3cccc(-c4cc(F)c(Cc5nc6ccc(C(=O)O)cc6n5C[C@@H]5CCO5)cc4F)n3)s2)nn1 [Example 89, (S)-2-(2,5-difluoro-4-(6-((5-(1-methyl-1H-1,2,3-triazol-4-yl)thiazol-2-yl)methoxy)pyridin-2-yl)benzyl)-1-(oxetan-2-ylmethyl)-1H-benzo[d]imidazole-6-carboxylic acid] as the molecule, how does the EC50 read?
Answer: 1860 pM

Question: Which EC50 does the source give for O=C(O)c1ccc2nc(Cc3cc(F)c(-c4cccc(OCc5ncc(-c6cnn(C7CC7)c6)s5)n4)cc3F)n(C[C@@H]3CCO3)c2c1 [Example 90, (S)-2-(4-(6-((5-(1-cyclopropyl-1H-pyrazol-4-yl)thiazol-2-yl)methoxy)pyridin-2-yl)-2,5-difluorobenzyl)-1-(oxetan-2-ylmethyl)-1H-benzo[d]imidazole-6-carboxylic acid] here?
Answer: 210 pM

Question: For Cn1cc(-c2nnc(COc3cccc(-c4cc(F)c(Cc5nc6ccc(C(=O)O)cc6n5C[C@@H]5CCO5)cc4F)n3)s2)cn1 [Example 91, (S)-2-(2,5-difluoro-4-(6-((5-(1-methyl-1H-pyrazol-4-yl)-1,3,4-thiadiazol-2-yl)methoxy)pyridin-2-yl)benzyl)-1-(oxetan-2-ylmethyl)-1H-benzo[d]imidazole-6-carboxylic acid], which EC50 is on record?
Answer: 120 pM

Question: How did the EC50 turn out when O=C(O)c1ccc2nc(Cc3cc(F)c(-c4cccc(OCc5nnc(-c6cnn(C(F)F)c6)s5)n4)cc3F)n(C[C@@H]3CCO3)c2c1 [Example 92, (S)-2-(4-(6-((5-(1-(difluoromethyl)-1H-pyrazol-4-yl)-1,3,4-thiadiazol-2-yl)methoxy)pyridin-2-yl)-2,5-difluorobenzyl)-1-(oxetan-2-ylmethyl)-1H-benzo[d]imidazole-6-carboxylic acid] was run?
Answer: 70 pM

Question: How did the EC50 turn out when O=C(O)c1ccc2nc(Cc3cc(F)c(-c4cccc(OCc5ncc(-c6cnco6)s5)n4)cc3F)n(C[C@@H]3CCO3)c2c1 [Example 93, (S)-2-(2,5-difluoro-4-(6-((5-(oxazol-5-yl)thiazol-2-yl)methoxy)pyridin-2-yl)benzyl)-1-(oxetan-2-ylmethyl)-1H-benzo[d]imidazole-6-carboxylic acid] was run?
Answer: 60 pM

Question: Which EC50 does the source give for Cn1nccc1-c1cnc(COc2cccc(-c3cc(F)c(Cc4nc5ccc(C(=O)O)cc5n4C[C@@H]4CCO4)cc3F)n2)s1 [Example 94, (S)-2-(2,5-difluoro-4-(6-((5-(1-methyl-1H-pyrazol-5-yl)thiazol-2-yl)methoxy)pyridin-2-yl)benzyl)-1-(oxetan-2-ylmethyl)-1H-benzo[d]imidazole-6-carboxylic acid] here?
Answer: 2870 pM

Question: With O=C(O)c1ccc2nc(Cc3cc(F)c(-c4cccc(OCc5ncc(-c6cnsc6)s5)n4)cc3F)n(C[C@@H]3CCO3)c2c1 [Example 95, (S)-2-(2,5-difluoro-4-(6-((5-(isothiazol-4-yl)thiazol-2-yl)methoxy)pyridin-2-yl)benzyl)-1-(oxetan-2-ylmethyl)-1H-benzo[d]imidazole-6-carboxylic acid] as the molecule, how does the EC50 read?
Answer: 80 pM

Question: For O=C(O)c1ccc2nc(Cc3cc(F)c(-c4cccc(OCc5nnc(-c6cnn(C7CC7)c6)s5)n4)cc3F)n(C[C@@H]3CCO3)c2c1 [Example 96, (S)-2-(4-(6-((5-(1-cyclopropyl-1H-pyrazol-4-yl)-1,3,4-thiadiazol-2-yl)methoxy)pyridin-2-yl)-2,5-difluorobenzyl)-1-(oxetan-2-ylmethyl)-1H-benzo[d]imidazole-6-carboxylic acid], which EC50 is on record?
Answer: 130 pM

Question: With Cn1cc(-c2cnc(COc3cccc(-c4cc(F)c(Cc5nc6ccc(C(=O)O)cc6n5[C@H]5COCC5(C)C)cc4F)n3)s2)cn1 [Example 97, (R)-2-(2,5-difluoro-4-(6-((5-(1-methyl-1H-pyrazol-4-yl)thiazol-2-yl)methoxy)pyridin-2-yl)benzyl)-1-(4,4-dimethyltetrahydrofuran-3-yl)-1H-benzo[d]imidazole-6-carboxylic acid] as the molecule, how does the EC50 read?
Answer: 110 pM

Question: Which EC50 does the source give for Cn1cc(-c2cnc(COc3nc(-c4cc(F)c(Cc5nc6c(F)cc(C(=O)O)cc6n5C[C@@H]5CCO5)cc4F)ccc3F)s2)cn1 [Example 98, (S)-2-(2,5-difluoro-4-(5-fluoro-6-((5-(1-methyl-1H-pyrazol-4-yl)thiazol-2-yl)methoxy)pyridin-2-yl)benzyl)-4-fluoro-1-(oxetan-2-ylmethyl)-1H-benzo[d]imidazole-6-carboxylic acid] here?
Answer: 30 pM

Question: How did the EC50 turn out when Cn1cc(-c2cnc(COc3nc(-c4cc(F)c(Cc5nc6ccc(C(=O)O)cc6n5C[C@@H]5CCO5)cc4F)ccc3F)s2)cn1 [Example 99, (S)-2-(2,5-difluoro-4-(5-fluoro-6-((5-(1-methyl-1H-pyrazol-4-yl)thiazol-2-yl)methoxy)pyridin-2-yl)benzyl)-1-(oxetan-2-ylmethyl)-1H-benzo[d]imidazole-6-carboxylic acid] was run?
Answer: 140 pM

Question: Which EC50 does the source give for O=C(O)c1ccc2nc(Cc3cc(F)c(-c4cccc(OCc5ncc(-c6ccns6)s5)n4)cc3F)n(C[C@@H]3CCO3)c2c1 [Example 100, (S)-2-(2,5-difluoro-4-(6-((5-(isothiazol-5-yl)thiazol-2-yl)methoxy)pyridin-2-yl)benzyl)-1-(oxetan-2-ylmethyl)-1H-benzo[d]imidazole-6-carboxylic acid] here?
Answer: 90 pM

Question: How did the EC50 turn out when O=C(O)c1ccc2nc(Cc3cc(F)c(-c4cccc(OCc5ncc(-c6cncs6)s5)n4)cc3F)n(C[C@@H]3CCO3)c2c1 [Example 101, (S)-2-(4-(6-([5,5′-bithiazol]-2-ylmethoxy)pyridin-2-yl)-2,5-difluorobenzyl)-1-(oxetan-2-ylmethyl)-1H-benzo[d]imidazole-6-carboxylic acid] was run?
Answer: 140 pM

Question: For Cn1cncc1-c1cnc(COc2cccc(-c3cc(F)c(Cc4nc5ccc(C(=O)O)cc5n4C[C@@H]4CCO4)cc3F)n2)s1 [Example 102, (S)-2-(2,5-difluoro-4-(6-((5-(1-methyl-1H-imidazol-5-yl)thiazol-2-yl)methoxy)pyridin-2-yl)benzyl)-1-(oxetan-2-ylmethyl)-1H-benzo[d]imidazole-6-carboxylic acid], which EC50 is on record?
Answer: 13600 pM

Question: Cn1ccc(-c2cnc(COc3cccc(-c4cc(F)c(Cc5nc6ccc(C(=O)O)cc6n5C[C@@H]5CCO5)cc4F)n3)s2)n1 [Example 103, (S)-2-(2,5-difluoro-4-(6-((5-(1-methyl-1H-pyrazol-3-yl)thiazol-2-yl)methoxy)pyridin-2-yl)benzyl)-1-(oxetan-2-ylmethyl)-1H-benzo[d]imidazole-6-carboxylic acid] was tested. Which EC50 did it give?
Answer: 230 pM

Question: Which EC50 does the source give for Cc1nc(COc2cccc(-c3cc(F)c(Cc4nc5ccc(C(=O)O)cc5n4C[C@H]4CCO4)cc3F)n2)sc1-c1cnn(C)c1 [Example 104, (R)-2-(2,5-difluoro-4-(6-((4-methyl-5-(1-methyl-1H-pyrazol-4-yl)thiazol-2-yl)methoxy)pyridin-2-yl)benzyl)-1-(oxetan-2-ylmethyl)-1H-benzo[d]imidazole-6-carboxylic acid] here?
Answer: 70 pM
